In patent US9217014B2, “Antifungal agents and uses thereof” (Cidara Therapeutics, Inc., priority 2011, dated 2015):

Columns and labels:
Aspergillus spp. = experiment: MEC and MIC values versus Aspergillus spp.; assay type: cell-based; conditions: 48 h; presence and absence of 50% human serum
Protocol: MEC and MIC values (μg/mL) of anidulafungin, caspofungin, amphotericin B, compound 1, and compound 16 against various Aspergillus species in the presence and absence of 50% human serum were obtained as follows.
Test organisms were obtained from the American Type Culture Collection (Manassas, Va.). The isolates were maintained at −80° C., then thawed and sub-cultured prior to testing. […]
Standardized inoculum of Aspergillus was prepared per CLSI methods. […] After a short time to allow the heavy particles to settle out, a small quantity of the supernatant was dispensed into RPMI and the suspension adjusted to equal 0.5 McFarland turbidity. […]
Plates were covered with a lid, placed in plastic bags, and incubated at 35° C. The Aspergillus plates were incubated for 48 h before reading. […]
Both an MIC and Minimal Effective Concentration (MEC) value was recorded. […]

[1] = Solubility in non-aqueous solvents; assay type: physicochemical; conditions: organic solvent or mixture, compound 1 as acetate salt
Protocol: The solubility of compound 1 (acetate salt) was also measured in non-aqueous solvents to assess this compound's suitability for formulation in non-aqueous carriers.

[2] = Solubility in aqueous buffers of varying pH; assay type: physicochemical; conditions: for solubility: ambient temperature, compound 1 as acetate salt
Protocol: The solubility of compound 1 (acetate salt) was measured in aqueous buffers of varying pH to assess this compound's suitability for formulation in an aqueous carrier for administration by injection (e.g., intravenous or intramuscular injection).

SMILES	activity against Aspergillus strains relative to anidulafungin (MEC and MIC) (Aspergillus spp.)	solubility ([1]; Ethanol (EtOH))	solubility ([1]; Glycerol)	solubility ([1]; PEG400)	solubility ([1]; Propylene glycol(PG))	solubility ([2]; aqueous buffer, pH 3 (0.01M formate buffer))	solubility ([2]; aqueous buffer, pH 4.6 (0.1M acetate buffer))	solubility ([2]; aqueous buffer, pH 5.6 (0.1M acetate buffer))	solubility ([2]; aqueous buffer, pH 7.4 (0.1M phosphate buffer))	solubility ([2]; aqueous buffer, pH 8.5 (0.01M TRIS buffer))	aqueous solubility compared with anidulafungin (in words) ([2]; over a broad pH range)	solubility ([2]; saline or isotonic, 0.9% saline)	solubility ([2]; simulated gastric fluid, pH 1 (0.1M HCl))
CCCCCOc1ccc(-c2ccc(-c3ccc(C(=O)N[C@H]4C[C@@H](O)C(OCC[N+](C)(C)C)NC(=O)C5[C@@H](O)[C@@H](C)CN5C(=O)C([C@@H](C)O)NC(=O)C([C@H](O)[C@@H](O)c5ccc(O)cc5)NC(=O)C5C[C@@H](O)CN5C(=O)C([C@@H](C)O)NC4=O)cc3)cc2)cc1 (some centres unmarked) [compound 1]	retain their activity	> 13.7 mg/mL	> 19.4 mg/mL	> 34.1 mg/mL	> 18.4 mg/mL	> 15 mg/mL	> 15 mg/mL	> 15 mg/mL	0.05 mg/mL	> 15 mg/mL	dramatically greater aqueous solubility than anidulafungin	4.6 mg/mL	> 15 mg/mL
CCCCCOc1ccc(-c2ccc(-c3ccc(C(=O)N[C@H]4C[C@@H](O)C(NCC[N+](C)(C)C)NC(=O)C5[C@@H](O)[C@@H](C)CN5C(=O)C([C@@H](C)O)NC(=O)C([C@H](O)[C@@H](O)c5ccc(O)cc5)NC(=O)C5C[C@@H](O)CC5C(=O)C([C@@H](C)O)NC4=O)cc3)cc2)cc1 (some centres unmarked) [compound 16]	retain their activity												
